Measurements published in publication PMC8650031, “Santin and cirsimaritin from Betula pubescens and Betula pendula buds induce apoptosis in human digestive system cancer cells” (Journal of Cellular and Molecular Medicine, 2021).

How the values were obtained:
[1] = tested on: normal human skin fibroblasts (CCD25Sk); assay: MTT cell viability assay, normal fibroblasts; type: cell-based; conditions: Skin fibroblast
Procedure: (§1) Viability of cells was determined using the MTT assay. Cells were plated in 96‐well plates at 1 × 10^4 cells per well and allowed to adhere for 24 h. […] MTT (3‐(4,5‐Dimethyl‐2‐thiazolyl)‐2,5‐diphenyl‐2H‐tetrazolium bromide, Sigma‐Aldrich, USA) solution was added to each well, and cells were incubated at 37°C for 4 h. The medium was then removed, and formazan crystals were dissolved in 100 μL of DMSO and 12.5 μL of Sorensen's glycine buffer on a plate shaker. Absorbance was measured at 570 nm using a microplate reader. IC50 values were calculated using GraphPad Prism software.

[2] = tested on: colorectal adenocarcinoma DLD‐1 cells; assay: MTT cell viability assay, DLD-1 cells; type: cell-based, human; conditions: for IC50: Homo sapiens, MTT; for reduction in viability: DLD-1, 100 μM
Procedure: as §1

HepG2 cells [3] = assay: Annexin V/propidium iodide apoptosis assay, HepG2; type: cell-based, human; conditions: 48 h
Procedure: (§2) Cells were seeded at a density of 1 × 10^5 cells per well in 6-well plates and allowed to adhere for 24 h. Cells were treated with various concentrations of flavonoids (12.5, 25, 50 and 100 μM) for 48 h. Floating and adherent cells were collected and assayed using a Dead Cell Apoptosis Kit with annexin V-fluorescein isothiocyanate (FITC) and propidium iodide (PI), for flow cytometry (#V13242, Thermo Fisher Scientific, USA), according to the manufacturer’s protocol. Briefly, cells were dispersed in 100 μL annexin-binding buffer containing 5 μL annexin V-FITC conjugate solution, 1 μg/mL PI and 1 μg/mL Hoechst 33342, and incubated for 15 min at room temperature. Then 400 μL of annexin-binding buffer was added, and the cell suspension was transferred to 96-well plates and visualised using fluorescence microscopy on a BD Pathway 855 system (Becton Dickinson, USA). Early […]
(§3) red and blue fluorescence. […]

p53 in HepG2 cells = assay: p53 expression by Western blot and fluorescence microscopy, HepG2; type: cell-based, human; conditions: HepG2, 48 h treatment
Procedure: (§4) Cells were seeded at a density of 1 × 10^5 cells per well in 6-well plates and allowed to adhere for 24 h. Cells were treated with various concentrations of flavonoids (12.5, 25, 50 and 100 […]
(§5) Adherent and floating cells were harvested and sonicated. Obtained homogenates were supplemented with 1% protease and phosphatase inhibitor cocktail (#78440, Thermo Fisher Scientific, USA). A Lowry assay was performed to quantify protein content in the homogenates. Proteins (20–40 μg) were resolved on 7.5%, 10% or 12% SDS-PAGE gels using the Mini-Protean Tetra system (Bio-Rad, USA). Proteins were transferred to nitrocellulose membranes (Bio-Rad, USA) using the Mini Trans-Blot Cell wet blotting system (Bio-Rad, USA). Membranes were blocked with 5% skim milk for 1 hour at room temperature and probed overnight at 4 °C with primary antibodies. The following antibodies […]
(§6) 1:1000), purchased from Cell Signaling Technology (USA); anti-p53 antibody (#sc-126, […]
(§7) 1:500) obtained from Santa Cruz Biotechnology (USA); and anti-actin antibody (#A2066, 1:2000) purchased from Sigma-Aldrich (USA). After extensive washes, a secondary antibody solution in 5% skim milk (anti-mouse IgG-HRP, Sigma-Aldrich, #A9044, 1:5000; anti-rabbit IgG-HRP, Sigma-Aldrich, #A9169, 1:5000) was added for 1 h at room temperature.
(§8) Membranes were incubated with ECL-HRP substrate (GE Healthcare, USA) and the signal was detected using the BioSpectrum Imaging System (Ultra-Violet Products, Ltd., UK).
(§9) 2.8. Immunofluorescence microscopy
(§10) Cells were plated in 96-well plates at 1 × 10^4 cells per well and allowed to adhere for 24 h.
(§11) Cells were treated with the respective concentration of flavonoids and incubated for 48 h. […]
(§12) The mass spectrometric detector was calibrated by analyzing flavonoid solutions in the concentration range 0.06‒2.0 mg/ml in the mode of selective monitoring of the most intense ions (M+ ‒ CH3) in the spectra of TMS derivatives of the determined components (Table S1).

p53 in DLD‐1 cells = assay: p53 expression by Western blot and fluorescence microscopy, DLD-1; type: cell-based, human; conditions: DLD-1, 48 h treatment
Procedure: as §4, §5, §6, §7, §8, §9, §10, §11, §12

p53 in AGS cells = assay: p53 expression by Western blot and fluorescence microscopy, AGS; type: cell-based, human; conditions: 48 h treatment
Procedure: as §4, §5, §6, §7, §8, §9, §10, §11, §12

DLD‐1 cells [4] = assay: Colony formation assay, DLD-1; type: cell-based, human; conditions: 48 h treatment then 7 days culture
Procedure: (§13) 2.5. Colony formation assay
(§14) In total, 250 cells were plated in each well of 12-well plates and allowed to adhere for 24 h.
(§15) Cells were treated with various concentrations of flavonoids (3.125, 6.25, 12.5, 25, 50 and 100 μM) for 48 h. Medium was discarded and fresh medium was added. After seven days, culture medium was removed and cells were washed once with PBS. Then, cells were fixed with 4% formaldehyde and stained with 0.1% crystal violet. […]

DLD‐1 cells [5] = assay: [3H]-thymidine incorporation (DNA biosynthesis), DLD-1; type: cell-based, human; conditions: DLD-1, 50 μM, 48 h
Procedure: (§16) Cells were plated in 24‐well plates at 4 × 10^4 cells per well and allowed to adhere for 24 h. Cells were treated with the various concentrations of flavonoids (25, 50 and 100 μM) in 1 mL medium containing 0.5 μCi [^3H]‐thymidine (#MT6037, Hartmann Analytic, Germany) for 48 h. Medium was discarded, and cells were rinsed three times with phosphate buffered saline (PBS), and solubilized with 1 mL of 0.1 M sodium hydroxide containing 1% sodium dodecyl sulphate. Then, 9 mL of scintillation liquid (PerkinElmer, USA) was added, and radioactivity incorporated into DNA was measured using a scintillation counter.

AGS cells [6] = assay: [3H]-thymidine incorporation (DNA biosynthesis), AGS; type: cell-based, human; conditions: 50 μM, 48 h
Procedure: as §16

[7] = tested on: hepatocellular carcinoma HepG2 cells; assay: MTT cell viability assay, HepG2 cells; type: cell-based, human; conditions: for IC50: Homo sapiens, MTT; for reduction in viability: HepG2, 100 μM
Procedure: as §1

DLD‐1 cells [8] = assay: Annexin V/propidium iodide apoptosis assay, DLD-1; type: cell-based, human; conditions: 48 h
Procedure: as §2, §3

HepG2 cells [9] = assay: Colony formation assay, HepG2; type: cell-based, human; conditions: 48 h treatment then 7 days culture
Procedure: as §13, §14, §15

[10] = tested on: gastric adenocarcinoma AGS cells; assay: MTT cell viability assay, AGS cells; type: cell-based, human; conditions: for IC50: Homo sapiens, MTT; for reduction in viability: 100 μM
Procedure: as §1

AGS cells [11] = assay: Annexin V/propidium iodide apoptosis assay, AGS; type: cell-based, human; conditions: 48 h
Procedure: as §2, §3

AGS cells [12] = assay: Colony formation assay, AGS; type: cell-based, human; conditions: 48 h treatment then 7 days culture; for decrease in number of colonies: 12.5 μM
Procedure: as §13, §14, §15

HepG2 cells [13] = assay: [3H]-thymidine incorporation (DNA biosynthesis), HepG2; type: cell-based, human; conditions: HepG2, 50 μM, 48 h
Procedure: as §16

Structure (SMILES) | IC50 ([2]; DLD-1, 48 h) [µM] | IC50 ([10]; 48 h) [µM] | IC50 ([10]; 72 h) [µM] | IC50 ([1]; 24 h) [µM] | IC50 ([1]; 48 h) [µM] | IC50 ([1]; 72 h) [µM] | p53 level (p53 in HepG2 cells) | p53 level (p53 in DLD‐1 cells) | p53 level (p53 in AGS cells) | reduction of [3H]-thymidine incorporation (DLD‐1 cells [5]) [%] | reduction of [3H]-thymidine incorporation (AGS cells [6]) [%] | reduction of [3H]-thymidine incorporation (HepG2 cells [13]) [%] | other results
COc1ccc(-c2cc(=O)c3c(O)cc(OC)cc3o2)cc1 [apigenin−7,4'‐O‐dimethyl ether, apigenin 7,4'‐O‐dimethyl ether] | – | – | – | 23.6 ± 2.2 | 12.9 ± 0.5 | 19.7 ± 1.3 | – | – | – | – | – | – | –
COc1ccc(-c2oc3cc(O)cc(O)c3c(=O)c2OC)cc1 [ermanin] | 49.3 ± 2.5 | 49.3 ± 3.3 | 44.5 ± 3.1 | – | – | – | – | – | – | 29.1 | 28.2 | 85.2 | reduction in viability ([2]; 48 h): over 80%; reduction in viability ([2]; 72 h): over 80%; reduction in viability ([7]; 48 h): over 80%; reduction in viability ([7]; 72 h): over 80%; reduction in viability ([10]; 48 h): over 80%; reduction in viability ([10]; 72 h): over 80%
COc1cc(O)c2c(=O)c(OC)c(-c3ccc(O)cc3)oc2c1 [kumatakenin] | – | – | – | – | – | 41.6 ± 3.5 | – | – | – | – | – | – | –
O=c1c(O)c(-c2ccc(O)c(O)c2)oc2cc(O)cc(O)c12 [quercetin] | – | – | 28.4 ± 2.5 | – | – | – | – | – | – | – | – | – | –

Further lines, with some results ahead:

IC50 ([2]; DLD-1, 48 h) [µM] | IC50 ([10]; 48 h) [µM] | IC50 ([10]; 72 h) [µM] | Structure (SMILES) | IC50 ([1]; 24 h) [µM] | IC50 ([1]; 48 h) [µM] | IC50 ([1]; 72 h) [µM] | p53 level (p53 in HepG2 cells) | p53 level (p53 in DLD‐1 cells) | p53 level (p53 in AGS cells) | reduction of [3H]-thymidine incorporation (DLD‐1 cells [5]) [%] | reduction of [3H]-thymidine incorporation (AGS cells [6]) [%] | reduction of [3H]-thymidine incorporation (HepG2 cells [13]) [%] | other results
43.6 ± 2 | 18.2 ± 1.3 | 23.4 ± 1.4 | O=c1cc(-c2ccc(O)cc2)oc2cc(O)cc(O)c12 [apigenin, reference compound] | > 50 | > 50 | > 50 | up‐regulated | up‐regulated | up‐regulated | 17.7 | 56.2 | 85.4 | IC50 ([2]; DLD-1, 24 h): > 50 µM; IC50 ([2]; DLD-1, 72 h): > 50 µM; percentage of cells in the early stage of apoptosis (HepG2 cells [3]; HepG2, 50 μM): 20.5%; percentage of cells in the late stage of apoptosis (HepG2 cells [3]; HepG2, 50 μM): 12.3%; decrease in number of colonies (DLD‐1 cells [4]; DLD-1, 12.5 μM): 23.5%; IC50 ([7]; HepG2, 24 h): > 50 µM; IC50 ([7]; HepG2, 48 h): > 50 µM; IC50 ([7]; HepG2, 72 h): 37.9 ± 2.9 µM; percentage of cells in the early stage of apoptosis (DLD‐1 cells [8]; DLD-1, 50 μM): 29.7%; percentage of cells in the late stage of apoptosis (DLD‐1 cells [8]; DLD-1, 50 μM): 9.4%; decrease in number of colonies (HepG2 cells [9]; HepG2, 12.5 μM): 61.8%; IC50 ([10]; 24 h): > 50 µM; percentage of cells in the early stage of apoptosis (AGS cells [11]; 50 μM): 71.2%; percentage of cells in the late stage of apoptosis (AGS cells [11]; 50 μM): 9.6%; decrease in number of colonies (AGS cells [12]): 13.2%
28 ± 1.3 | 17.1 ± 0.8 | 13.9 ± 1.2 | COc1ccc(-c2oc3cc(O)c(OC)c(O)c3c(=O)c2OC)cc1 [santin] | > 50 | > 50 | > 50 | increased significantly | decreased | increased significantly | 35.0 | 48.0 | 74.9 | IC50 ([2]; DLD-1, 24 h): > 50 µM; IC50 ([2]; DLD-1, 72 h): 36.5 ± 2.5 µM; percentage of cells in the early stage of apoptosis (HepG2 cells [3]; HepG2, 12.5 μM): 36.6%; percentage of cells in the late stage of apoptosis (HepG2 cells [3]; HepG2, 12.5 μM): 16.1%; decrease in number of colonies (DLD‐1 cells [4]; DLD-1, 6.25 μM): 60%; IC50 ([7]; HepG2, 24 h): > 50 µM; IC50 ([7]; HepG2, 48 h): 19.8 ± 0.9 µM; IC50 ([7]; HepG2, 72 h): 22.7 ± 1.6 µM; percentage of cells in the early stage of apoptosis (DLD‐1 cells [8]; DLD-1, 12.5 μM): 54.8%; percentage of cells in the late stage of apoptosis (DLD‐1 cells [8]; DLD-1, 12.5 μM): 6.7%; decrease in colony numbers (HepG2 cells [9]; HepG2, 3.125 μM): 65.8%; IC50 ([10]; 24 h): > 50 µM; percentage of cells in the early stage of apoptosis (AGS cells [11]; 12.5 μM): 65.8%; percentage of cells in the late stage of apoptosis (AGS cells [11]; 12.5 μM): 7.6%; decrease in colony numbers (AGS cells [12]; 3.125 μM): 77.4%
– | 31.7 ± 2.4 | 17.1 ± 1.4 | COc1cc2oc(-c3ccc(O)cc3)cc(=O)c2c(O)c1OC [cirsimaritin] | > 50 | > 50 | > 50 | increased significantly | decreased | increased significantly | 10.0 | 24.5 | 53.6 | percentage of cells in the early stage of apoptosis (HepG2 cells [3]; HepG2, 50 μM): 51.2%; percentage of cells in the late stage of apoptosis (HepG2 cells [3]; HepG2, 50 μM): 5.4%; percentage of cells in the early stage of apoptosis (DLD‐1 cells [8]; DLD-1, 50 μM): 51.5%; percentage of cells in the late stage of apoptosis (DLD‐1 cells [8]; DLD-1, 50 μM): 15.5%; percentage of cells in the early stage of apoptosis (AGS cells [11]; 50 μM): 37.0%; percentage of cells in the late stage of apoptosis (AGS cells [11]; 50 μM): 7.4%; decrease in number of colonies (AGS cells [12]): 75.7%
